One data set deals with carcinomas. As to conditions: delivered with pH sensitive hydrogels; cited from earlier work.
A further data set concerns tumor. As to conditions: delivered by thermosensitive, biodegradable hydrogels; gradual release, local delivery to tumor site; cited from earlier work.
A short description of data set [1]: Net charge and isoelectric point of peptide. It is filed as physicochemical. As to conditions: pH 7. An excerpt:
The peptide may be purified. For example, the peptide may be lyophilized. […] Other peptides are within the scope of the disclosure.
Exemplary peptides having a charge of +5 to +9 include […](d)[…], […] (d)[…], and […] (d)[…]. In other embodiments, the purified peptide may be substantially neutral. […] Net charge may be selected by peptide design. Design of electrostatic charge in the peptide hydrogel may allow control of charge interaction with cell membrane and proteins.

On to `O=c1[nH]cc(F)c(=O)[nH]1` [5-fluorouracil], for which the “tumor size compared to systemic delivery” value in the data set with carcinomas is reported as “significant decrease in tumor size”.

`COc1cccc2c1C(=O)c1c(O)c3c(c(O)c1C2=O)C[C@@](O)(C(=O)CO)C[C@@H]3O[C@H]1C[C@H](N)[C@H](O)[C@H](C)O1` [DOX, Doxorubicin]: in the data set on tumor, the “treatment outcomes compared to systemic treatment modalities” value is recorded as “improved treatment outcomes”.

Regarding `CN(C)C(=N)N=C(N)N` [metformin], the “tumor size compared to systemic delivery” value in the data set on carcinomas is listed as “significant decrease in tumor size”.

As for VEVSVSVEVdPPTEVSVEVEV-NH2, the net charge result in data set [1] is reported as “net negative charge”.

The values are drawn from patent US20250281676A1 (priority 2020, published 2025).
